Earlier results in patent US20150079197A1, “MEDICINE COMPRISING COMBINATION OF GENERAL ANESTHETIC AND HYDROGEN” (MARUISHI PHARMACEUTICAL CO., LTD., priority 2012, published 2015).

What was measured:
degenerated neurons = conditions: neonatal rats, Non Patent Literature 30

Row | SMILES | neurodegeneration (developing brains; alone) | neurodegeneration (degenerated neurons) | increase in the apoptosis level in the cortex (developing brains; cortex, as compared with the control) | increase in the apoptosis level in the hippocampus (developing brains; hippocampus)
1 | [N-]=[N+]=O [nitrous oxide] | no neurodegeneration |  |  | 
2 | FC(F)OC(Cl)C(F)(F)F (stereo not shown) [isoflurane] |  | dose-dependent neurodegeneration | 4 fold | 4 fold
